± gives the expanded uncertainty stated by the source.

Data set [1] in a line: mn = molality of the nth substance listed, in mol/kg. The conditions noted are these: 101 kPa, Liquid, m2 = 0; for speed of sound: Linear variable-path acoustic interferometer; for mass density: Pycnometric method.
For data set [2] the following is noted: 101 kPa, Liquid; for speed of sound: Linear variable-path acoustic interferometer; for mass density: Pycnometric method.

With `O` [water] + N=C(N)NCCC[C@H](N)C(=O)O, the speed of sound in data set [1] (275.15 K) turned out to be 1412.2 ± 2.8 m/s; in data set [1] (279.15 K), 1430.6 ± 2.8 m/s; in data set [1] (283.15 K) it was 1447.3 ± 2.8 m/s. For the same compound, the mass density came out at 999.94 ± 0.47 kg/m3 in data set [1] (275.15 K), 999.94 ± 0.47 kg/m3 in data set [1] (279.15 K) and 999.7 ± 0.46 kg/m3 in data set [1] (283.15 K).

Consider `O` [water] + CC(C)[C@H](N)C(=O)O, for which the speed of sound was 1412.2 ± 2.8 m/s in data set [1] (275.15 K), 1430.6 ± 2.8 m/s in data set [1] (279.15 K) and 1447.3 ± 2.8 m/s in data set [1] (283.15 K). For the same compound, the mass density amounted to 999.94 ± 0.47 kg/m3 in data set [1] (275.15 K), 999.94 ± 0.47 kg/m3 in data set [1] (279.15 K) and 999.7 ± 0.46 kg/m3 in data set [1] (283.15 K).

For `O` [water] + C[C@@H](O)[C@H](N)C(=O)O, the results for the speed of sound in data set [1] (275.15 K), in data set [1] (279.15 K) and in data set [1] (283.15 K) were 1412.2 ± 2.8 m/s, 1430.6 ± 2.8 m/s and 1447.3 ± 2.8 m/s, respectively. In addition, the values for the mass density in data set [1] (275.15 K), in data set [1] (279.15 K) and in data set [1] (283.15 K) were 999.94 ± 0.47 kg/m3, 999.94 ± 0.47 kg/m3 and 999.7 ± 0.46 kg/m3, respectively.

Turning to `O` [water], the speed of sound in data set [2] (275.15 K) was found to be 1412.2 ± 2.8 m/s; in data set [2] (279.15 K), 1430.6 ± 2.8 m/s; in data set [2] (283.15 K) it was 1447.3 ± 2.8 m/s. Further, the mass density in data set [2] (275.15 K) was 999.94 ± 0.47 kg/m3; in data set [2] (279.15 K) it was 999.94 ± 0.47 kg/m3; in data set [2] (283.15 K) it was 999.7 ± 0.46 kg/m3.
